For assay [1], the system named is H-RasG12V nanoclustering. The experiment in a line: H-RasG12V nanoclustering-BRET in HEK cells. The assay is classed as cell-based, human. Conditions: n = 3.
The test system of a further assay is Gal1/C-RBD. Description: FLIM-FRET Gal1/C-RBD interaction in HEK cells. The assay is classed as cell-based, rat Gal1; C-RBD of human C-Raf; HEK cells. Particulars: mGFP-Gal1 / mRFP-C-RBD 1:3, expression (24 h) of plasmid or compound, n = 3.
The test system of assay [2] is H-RasG12V nanoclustering. The experiment in a line: FLIM-FRET H-RasG12V nanoclustering in HEK cells. Particulars: donor:acceptor 1:3, expression (24 h), n = 3. The assay is classed as cell-based, HEK cells; rat Gal1.
For assay [3], the system named is H-RasG12V nanoclustering. Description: Electron microscopy-based analysis of H-RasG12V nanoclustering in BHK cells. The assay is classed as cell-based, baby hamster kidney (BHK) cells. Conditions: membrane sheets of Gal1-expressing BHK cells; n = 15. From the text:
To quantify the nanoclustering of a component integral to the plasma membrane (PM), the apical PM sheets of baby hamster kidney (BHK) cells expressing a GFP-tagged H-Ras construct were fixed with 4% (w/v) PFA and 0.1% (w/v) glutaraldehyde. GFP anchored to the PM sheets was probed with 4.5 nm gold particles pre-coupled to anti-GFP antibody. Following embedment with methyl cellulose, the PM sheets were imaged using transmission electron microscopy (JEOL JEM-1400). Using the coordinates of every gold particle, Ripley’s K-function calculated the extent of nanoclustering of gold particles within a selected 1 μm^2 PM area: K(r)=An^−2∑i≠jwij1(∥xi−xj∥≤r) Lr−r=Kr/π−r where n gold particles populate in an intact area of A; r is the length between 1 and 240 nm; || ^. || indicates Euclidean distance where 1(^.) = 1 if ||xi − xj|| ≤ r and 1(^.) = 0 if ||xi − xj|| > r; K(r) specifies the univariate K-function. wij^−1 is a parameter used for an unbiased edge correction and characterizes the proportion of the circumference of a circle that has the center at xi and radius ||xi-xj||. Monte Carlo simulations estimate the 99% confidence interval (99% C.I.), which is then used to linearly transform K(r) into L(r) − r. On a nanoclustering curve of L(r) − r vs. r, the peak L(r) − r value is used as summary statistics for nanoclustering and is termed as Lmax. […]

Assay [4] addresses Gal1. Conditions: residues 22–45 of L5UR, opposite side of the carbohydrate binding site of Gal1; ref 38 (Elantak et al.); cited from earlier work. The source says: (Supplementary Fig. 2a). […] We hypothesized that the 52-mer L5UR peptide, which was derived from a Gal1 interaction partner, could act as a Raf-RBD/Gal1-interface inhibitor. Its residues 22–45 were previously ... || page 9: Question 3-2. The authors measure the affinity of L5UR to BRAF GST-RBD using fluorescence polarization. The affinity is an increase is 40-fold over the affinity of this peptide to Gal1 – this is a significant enhancement, do the authors have an explanation for this? […] In the pull-downs containing both Gal1 and GST-RBD both proteins are pulled down to equal levels, again this is surprising as one would exp ...

Assay [5] deals with Gal1. The experiment in a line: Pull-down with biotinylated L5UR, Gal1. Type of assay: binding. Particulars: biotinylated L5UR 4 µM, proteins 2 µM; n = 3. How it is done:
(§1) Biotinylated L5UR (bio-L5UR) peptide was synthesized as described above with a PEG5-linker to link the biotin to the L5UR peptide. GST, GST-B-Raf-RBD (155–227), and His-Gal1 were prepared as described above. Each protein in the assay was used at 2 µM concentration, and the peptide was at 4 µM in a reaction of 150 µL. First, peptide and Gal1 were pre-incubated for 30 min at 37 °C, then GST-B-RBD or GST alone was added, and the reaction continued for another hour. Control reaction mixes contained DMSO-vehicle instead of the peptide. At the end of the reaction time, 10 µL of each sample was withdrawn for SDS-PAGE analysis as inputs. For pull-downs, 5 µL of the beads were taken per sample. To prepare the beads, an appropriate volume of the slurry was pipetted into 15 mL falcon tubes and centrifuged at 830×g for 1 min to remove the ethanol-containing supernatant. The falcon tube was topped up to 15 mL with distilled water and centrifuged for 1 min to remove water. This washing step was repeated three times. Finally, the beads were resuspended in distilled water so that the final bead volume was 4× diluted i.e., 20 µL were pipetted to each tube. […] The analysis was done by resolving the samples (8 µL of the input samples and 10 µL of the eluted material) on 4–20% gradient SDS-PAGE gels and analyzed by Western blotting. […]

In another assay the target is GST-B-RBD (Homo sapiens, UniProt P15056). The experiment in a line: Pull-down with biotinylated L5UR, GST-B-RBD. The assay is classed as binding. Conditions: biotinylated L5UR 4 µM, proteins 2 µM; n = 3. On the procedure: as §1
Assay [6] has as its target Gal1 (Homo sapiens) (UniProt P09382). Conditions: cited from earlier work.
Target sequence in this assay (P09382 2-135): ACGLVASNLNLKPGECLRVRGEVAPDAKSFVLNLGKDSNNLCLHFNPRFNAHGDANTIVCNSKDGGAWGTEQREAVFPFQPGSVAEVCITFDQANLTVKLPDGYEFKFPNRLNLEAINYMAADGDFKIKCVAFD
Assay [7] shares this target. Conditions: cited from earlier work. The source holds these as a separate data set.
In assay [8] the test system is MIA PaCa-2 cells (pERK, pAkt). Description: Immunoblot of EGF-induced pERK and pAkt in MIA PaCa-2. The assay is classed as cell-based, human. Conditions: intermediate concentrations, 2 h.
For assay [9], the system named is Hs 578 T cells (pERK, pAkt). Description: Immunoblot of EGF-induced pERK and pAkt in Hs 578 T. The assay is classed as cell-based, human. Conditions: intermediate concentrations, 2 h.
In a further assay the target is Gal1/B-RBD (Homo sapiens, UniProt P15056). The experiment in a line: Gal1/B-RBD BRET in HEK cells. The assay is classed as cell-based. Particulars: peptide added to HEK cells, 0.1 µM to 100 µM, 2 h incubation; donor:acceptor 1:10; n ≥ 2.
Another assay relates to HEK cells (pERK, pAkt). Type of assay: cell-based, human. Particulars: 2 h, EGF 200 ng/mL 10 min; n = 3–8.
For a further assay, the system named is GST. Description: Direct fluorescence polarization binding of F-L5UR to GST (control). Conditions: 10 nM F-L5UR, n = 3.
In the next assay the test system is His-tagged Gal1. The experiment in a line: Competitive fluorescence polarization, displacement of F-L5UR from His-tagged Gal1. The assay is classed as binding. Conditions: F-L5UR (5 nM), Gal1 (5 µM); n = 2.
Assay [10] addresses T1, GST-tagged B-Raf-RBD (155-227) (human, UniProt P15056 155-227).
T1 construct: also called GST-B-RBD; GST-B-Raf-RBD; source: E. coli, purified (glutathione agarose)
Conditions: both partners purified.

Assay [11] deals with T2, C-Raf-RBD (50-134), purified (human, UniProt P04049 50-134).
T2 construct: also called C-RBD; source: E. coli, purified (glutathione agarose)
Description: fluorescence polarisation; competitive: non-labeled peptides 3-fold diluted, added to a complex of F-L5UR and RBD (methods: 5 nM and 200 nM; legend of Fig. 2e: 10 nM and 15 µM GST-B-RBD); 30 min at ~22 °C; four-parameter fit. Particulars: both partners purified.

Assay [12] addresses B-Raf-derived RBD (BRET construct) (UniProt P15056).
In assay [13] the target is T2, C-Raf-RBD (50-134), purified. The experiment in a line: fluorescence polarisation; competitive: non-labeled peptides 3-fold diluted, added to a complex of F-L5UR and RBD (methods: 5 nM and 200 nM; legend of Fig. 2e: 10 nM and 15 µM GST-B-RBD); 30 min at ~22 °C; four-parameter fit. Particulars: both partners purified. This is another data set of the same source.
The target of assay [14] is T1, GST-tagged B-Raf-RBD (155-227). The assay is described as above. Particulars: both partners purified.

“Also recorded” adds a separate entry of the source. Read-outs that look alike come from different tables or passages of the source. Starred links: 1 amine or outer side, 2 acyl side, 3 side chain; linkers in the order of their positions; H or OH if unused. Primed or numbered codes have the meaning given here. No end group written: not given here. *: point of attachment. PEG5′ = linker from Fmoc-PEG5-OH (18-amino-4,7,10,13-tetraoxaoctadecanoic acid), O=C(CCOCCOCCOCCOCCCCCN[*:1])[*:2]; fluorescein = fluorescein label on the N-terminal amino group, attached via an aminohexanoic acid linker; FITC = O=C1OC2(c3ccc(O)cc3Oc3cc(O)ccc32)c2ccc(NC(=S)*)cc21; Biotin = O=C1N[C@H]2[C@H](CS[C@H]2CCCCC(=O)*)N1; Ahx = NCCCCCC(=O)O

Here are results for twelve molecules from paper PMC11233548 (Communications Biology, 2024).

T1 sequence (P15056 155-227): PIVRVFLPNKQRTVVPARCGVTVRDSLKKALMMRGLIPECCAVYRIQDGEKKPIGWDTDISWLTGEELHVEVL
Sequence of GST-B-RBD (P15056 155-227): as above
Sequence of Gal1/B-RBD (P15056 155-227): as above
Sequence of B-Raf-derived RBD (BRET construct) (P15056 155-227): as above

Turning to “Ac-LLRPTAASQSRALGPGAPGGSSRSSLRSRWGRFLLQRGSWTGPRCWPRGFQS-NH2 (N-terminus and C-terminus assumed) [L5UR]”, the “effect of construct expression on H-RasG12V nanoclustering-BRET without co-expression of Gal1” value in the assay on H-RasG12V nanoclustering [1] (expression (48 h), HEK cells comparatively devoid of Gal1, donor:acceptor 1:5) is given as “very similar effects even without co-expression of Gal1”. Further, in the assay with H-RasG12V nanoclustering [1] (expression (48 h), co-transfection of 200 ng Gal1 plasmid, donor:acceptor 1:5, Fig. 3c), the “reduction of H-RasG12V nanoclustering-BRET” value is on record as ~ 33%. The “effect on Gal1/C-RBD FRET” value with Gal1/C-RBD is “decreased the FRET between mGFP-Gal1 and mRFP-C-RBD”. In the assay on H-RasG12V nanoclustering [2] (Gal1-augmented), the “effect on H-RasG12V nanoclustering-FRET” value is given as “decreased the Gal1-augmented H-RasG12V nanoclustering-FRET”. For the same molecule, in the assay on H-RasG12V nanoclustering [2] (dimerization-deficient N-Gal1), the “effect on H-RasG12V nanoclustering-FRET, N-Gal1” value was “had no additional effect”. Further, in the assay on H-RasG12V nanoclustering [3], the “disruption of H-RasG12V nanoclustering (Lmax)” value is “disruption of H-RasG12V nanoclustering by L5UR- and L5UR-SNAP construct expression”. The equilibrium dissociation constant (Kd) at Gal1 [4] was 310 µM.

Take “bio-L5UR: Biotinylated L5UR with a PEG5-linker linking biotin to the L5UR peptide ({Biotin-PEG5′}-LLRPTAASQSRALGPGAPGGSSRSSLRSRWGRFLLQRGSWTGPRCWPRGFQS-NH2)”: the “pull-down of Gal1” value with Gal1 [5] was “pulled down Gal1 and the GST-B-RBD independently from each other”. Besides, the “pull-down of GST-B-RBD” value with GST-B-RBD was “pulled down Gal1 and the GST-B-RBD independently from each other”.

In the case of “L5UR peptide 22-45 (from UniProt P15814)”, in the assay with Gal1 (Homo sapiens) [6], the dissociation constant (Kd) is 310 µM.

Take Gal1 (from UniProt P09382): the Kd with Gal1 (Homo sapiens) [7] was 7 µM.

Regarding `CN(C)CCNC(=O)COc1c2cccc1Cc1cccc(c1OCC(=O)NCCN(C)C)Cc1cccc(c1OCC(=O)NCCN(C)C)Cc1cccc(c1OCC(=O)NCCN(C)C)C2` [OTX-008], the “effect on Gal1/C-RBD FRET” value in the assay with Gal1/C-RBD is “neither Anginex nor OTX-008 disrupted the Gal1/C-RBD interaction”.

With “GRKKRRQRRRPQ [TAT, 12-residue cell penetrating peptide derived from an HIV-protein, reference compound]”, in the assay with H-RasG12V nanoclustering [1] (peptide added to HEK cells, 0.1 µM to 100 µM, 2 h incubation, donor:acceptor 1:5, 200 ng Gal1 plasmid), the “effect of peptide on H-RasG12V nanoclustering BRET” value is “Neither the TAT-peptide alone, nor the mutant TAT-mutL5URcore, or the non-TAT peptides L5URcore and mutL5URcore decreased the BRET-signal in either assay”. Also, in assay [8], the “pERK- and/or pAkt-levels, MIA PaCa-2” value is “apparently non-specific increase in pERK- and/or pAkt-levels”. The “pERK- and/or pAkt-levels, Hs 578 T” value in assay [9] is listed as “apparently non-specific increase in pERK- and/or pAkt-levels”. The “effect of peptide on Gal1/B-RBD BRET” value at Gal1/B-RBD was “Neither the TAT-peptide alone, nor the mutant TAT-mutL5URcore, or the non-TAT peptides L5URcore and mutL5URcore decreased the BRET-signal in either assay”.

Turning to `CC(=O)Nc1cccc(-n2c(=O)n(C3CC3)c(=O)c3c(Nc4ccc(I)cc4F)n(C)c(=O)c(C)c32)c1` [trametinib, reference compound], the “pAkt levels, HEK” value with HEK cells (pERK, pAkt) is “also upregulated by trametinib”.

For the molecule “F-L5UR: fluorescein attached to N-terminus amino group of L5UR via aminohexanoic acid linker ({fluorescein-Ahx}-LLRPTAASQSRALGPGAPGGSSRSSLRSRWGRFLLQRGSWTGPRCWPRGFQS)”, the “binding to GST alone” value with GST was “no binding to GST alone; also recorded: negligible binding”.

For the molecule Anginex, in the assay with Gal1/C-RBD, the “effect on Gal1/C-RBD FRET” value was “neither Anginex nor OTX-008 disrupted the Gal1/C-RBD interaction”. For the same molecule, in the assay on His-tagged Gal1, the “displacement of F-L5UR from Gal1” value is on record as “it can be displaced from purified His-tagged Gal1”.

B1: FITC-tagged full-length L5UR (peptide, UniProt P15814 38-89, looked up)
peptide: {FITC-Ahx}-LLRPTAASQSRALGPGAPGGSSRSSLRSRWGRFLLQRGSWTGPRCWPRGFQS
notes: 52-mer L5UR: residues 38-89 of the unique region of the λ5-chain (λ5-UR) of the pre-B-cell receptor; also called F-L5UR; source: synthetic peptide; bought: Pepmic Co., China
As for B1, the dissociation constant Kd in [10] was 7.3 ± 0.7 µM. Besides, in assay [11], the binding result is “binds”.

B2: L5UR peptide, untagged, expressed in cells (peptide)
chain: LLRPTAASQSRALGPGAPGGSSRSSLRSRWGRFLLQRGSWTGPRCWPRGFQS
On to B2, for which, in [12], the reduction of Gal1-enhanced H-RasG12V nanoclustering-BRET in HEK cells on expression of the construct (it blocks Gal1/B-RBD) was determined as 33%.

B3: L5UR peptide, non-labeled (peptide, UniProt P15814 38-89, looked up)
peptide: B2 chain
notes: 52-mer L5UR: residues 38-89 of the unique region of the λ5-chain (λ5-UR) of the pre-B-cell receptor; also called full-length peptide of L5UR; source: synthetic peptide; bought: Pepmic Co., China
As for B3, the IC50 in assay [13] came out at 4 ± 1 µM; in assay [14], 2 ± 1 µM.
